In patent publication US20090054491A1, “Use” (AstraZeneca AB, priority 2005, published 2009):

Tested on: Female C57Bl6 mice
Test: Pharmacodynamic effect in mouse (intake of bland and palatable paste after fasting, body weight change)
Type: in vivo
Experimental: Female C57Bl6 mice (19-21 g) are singly housed for 7-days with ad libitum access to a “bland-paste” made from normal laboratory chow (R-3 Lactanin, Vadstena, Sweden) or to a “palatable-paste” of similar consistency containing oatmeal, butter, sugar, cocoa powder, cocoa butter and peanut butter. The day before the experimental day, food is removed for 12 hours. O the experiment day, animals are weighed and compound or vehicle is administered. Animals are returned to their home cages and given access to weighed amounts of both bland and palatable pastes. This food is then re-weighed 2, and optionally 4 and 6 hours later, and consumption of each food type calculated by the difference from initial food weight. Animals are further weighed at 24 hours after administration, and change in body weight over the treatment period is calculated.

Compound: COCc1cc(C#N)cc(-c2nc(-c3ccc(F)cn3)no2)c1 [3-[3-(5-fluoropyridin-2-yl)-1,2,4-oxadiazol-5-yl]-5-(methoxymethyl)benzonitrile]
- body weight recovery after fasting (compared to vehicle treated animals, FIG. 2): slower body weight recovery
- effect on normal laboratory chow (intake) (measured 2 hours after treatment, bland paste, fasted mice, FIG. 1): no effect
- intake of sweets (measured 2 hours after treatment, palatable paste, fasted mice, FIG. 1): decreased intake of sweets measured 2 hours after treatment in a dose-related manner
